Reference: patent US8293780B1, “Anti-cancer agents based on 6-trifluoromethoxybenzimidazole derivatives and method of making” (U.S. Department of Energy, priority 2009, dated 2012)
Counter-ions that a name gives are not always drawn.

What follows are compounds tested on DU-145 cells (prostate carcinoma) (assay: DU-145 cell growth inhibition, tetrazolium dye XTT viability endpoint). Details: Homo sapiens, triplicate, five half-logarithmic dilutions, read-out: DU145 TC50.
Type: cell-based
Protocol: Cell Preparation: DU-145 cells (prostate carcinoma; catalog #HTB-81) were obtained from the ATCC and propagated in EMEM with Earles BSS supplemented with 10% FBS (fetal bovine serum), 2 mM L-glutamine, 100 U/mL penicillin, 100 μg/mL streptomycin, 1 mM sodium pyruvate, and 0.1 mM NEAA (Non-Essential Amino Acids). DU-145 cells were passaged in T-75 flasks prior to use in the assay. On the day preceding the assay, the cells were split 1:2 to assure they were in an exponential growth phase at the time of infection. Total cell and viability quantification was performed using a hemocytometer and Trypan Blue dye exclusion. Cell viability was greater than 95% for the cells to be utilized in the assay. The cells were re-suspended at 1×10^5 cells per mL in tissue culture medium and added to the drug-containing microtiter plates in a volume of 100 μL.
Plate Format: Each plate contained cell control wells (cells only), experimental compound evaluation wells (cells plus compound only), and test compound colorimetric control wells (compound only). Samples were initially tested in triplicate for inhibition of DU-145 cell growth at 10 μM concentration for each compound with a single colorimetric control well. Secondary assay tested the compounds in triplicate using five half-logarithmic dilutions.
Tetrazolium Dye XTT Viability Endpoint: Following incubation at 37° C. in a 5% CO2 incubator, the test plates were stained with the tetrazolium dye XTT (2,3-bis(2-methoxy-4-nitro-5-sulfophenyl)-5-[(phenylamino)carbonyl]-2H-tetrazolium hydroxide). XTT was metabolized by the mitochondrial enzymes of metabolically active cells to a soluble formazan product, allowing rapid quantitative analysis of the inhibition of DU-145 […] by anti-prostate cancer test substances. XTT solution was prepared daily as a stock of 1 mg/mL in RPMI1640. Phenazine methosulfate (PMS) solution was prepared at 0.15 mg/mL in PBS (Phosphate—Buffered Saline) and stored in the dark at −20° C. XTT/PMS stock was prepared immediately before use by adding 40 μL of PMS per ml of XTT solution. Fifty microliters of XTT/PMS was added to each well of the plate and the plate was reincubated for 4 hours at 37° C. Plates were sealed with adhesive plate sealers and shaken gently or inverted several times to mix the soluble formazan product and the plate was read spectrophotometrically at 450/650 nm with a Molecular Devices Vmax plate reader.
IC50 represents the concentration of a drug that is required for 50% inhibition in vitro.
`CC/C(=C(\c1ccccc1)c1ccc(OCCN(C)C)cc1)c1ccccc1` [Tamoxifen Citrate, reference compound] was tested, and the CC50 was 20 µM. `FC(F)(F)Oc1ccc2nc(-c3ccccc3)[nH]c2c1` was tested, and the CC50 was 0.9 µM. Work on `FC(F)(F)Oc1ccc2nc(-c3ccco3)[nH]c2c1` yielded a CC50 of 1.8 µM. `FC(F)(F)Oc1ccc2nc(-c3cccnc3)[nH]c2c1` was tested, and the CC50 was 4.6 µM. `CCc1nc2ccc(OC(F)(F)F)cc2[nH]1` was tested, and the CC50 was greater than 10 µM. `Cc1nc2ccc(OC(F)(F)F)cc2[nH]1` was tested, and the CC50 was greater than 10 µM.
